Experimental data taken from ChEMBL document CHEMBL1201862, “PubChem BioAssay data set” (2004).
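Where inhibition never reached the appropriate level, the endpoint shown equals the highest concentration tested. Otherwise, values were interpolated linearly from a five-concentration, 48-hour dose response in 96-well plates. Abbreviation: GI50, concentration required for 50% inhibition of growth.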 Calls of active or inactive are those of the source. Cut-off read from the data, not from the text of the source: active = GI50 up to about 1.1 µM and inactive = higher.

Experiments:
Experiment in all cases: DTP human tumour cell line panel, 48 h
[1] = tested on: SN12C
[2] = tested on: SNB-19
[3] = tested on: LOX IMVI
[4] = tested on: RXF 393
[5] = tested on: PC-3
[6] = tested on: SF-295
[7] = tested on: SNB-75
[8] = tested on: HL-60
[9] = tested on: COLO 205
[10] = tested on: K562
[11] = tested on: OVCAR-3
[12] = tested on: EKVX
[13] = tested on: NCI-H23
[14] = tested on: HOP-62
[15] = tested on: DU-145
[16] = tested on: 786-0
[17] = tested on: SK-MEL-5
[18] = tested on: KM12
[19] = tested on: UO-31

Compound | GI50 [1] | GI50 [2] | GI50 [3] | GI50 [4] | GI50 [5] | GI50 [6] | GI50 [7] | GI50 [8] | GI50 [9] | GI50 [10] | GI50 [11] | GI50 [12] | GI50 [13] | GI50 [14] | GI50 [15] | GI50 [16] | GI50 [17] | GI50 [18] | GI50 [19]
COc1c2ccoc2cc2oc(=O)ccc12 [BERGAPTEN] | > 100 µM (inactive) | > 100 µM (inactive) | > 100 µM (inactive) | > 100 µM (inactive) | > 100 µM (inactive) | > 100 µM (inactive) | 89.1 µM (inactive) | > 100 µM (inactive) | > 100 µM (inactive) | > 100 µM (inactive) | > 100 µM (inactive) | 18.7 µM (inactive) | > 100 µM (inactive) | > 100 µM (inactive) | > 100 µM (inactive) | > 100 µM (inactive) | > 100 µM (inactive) | – | –
O=C(c1cc(Cl)cc(Cl)c1)N(C(=S)OC12CC3CC(CC(C3)C1)C2)c1ccccc1 | 36.5 µM (inactive) | 45.6 µM (inactive) | – | 41.2 µM (inactive) | 35.2 µM (inactive) | 34.5 µM (inactive) | 61 µM (inactive) | 24.4 µM (inactive) | 18.6 µM (inactive) | – | 45.3 µM (inactive) | 21.8 µM (inactive) | 36.1 µM (inactive) | 42.7 µM (inactive) | 75.2 µM (inactive) | 32.8 µM (inactive) | 28.3 µM (inactive) | 40.3 µM (inactive) | 25.1 µM (inactive)
C/C(=N\NC(=[Se])N1CCN(c2ccccn2)CC1)c1ccccn1 | 0.222 µM (active) | 1.14 µM (inactive) | 0.0268 µM (active) | 0.0352 µM (active) | 0.01 µM (active) | 2.42 µM (inactive) | 4.7 µM (inactive) | 0.0432 µM (active) | 0.01 µM (active) | 0.0448 µM (active) | 0.01 µM (active) | – | 3.06 µM (inactive) | 0.0728 µM (active) | 5.14 µM (inactive) | 0.243 µM (active) | 0.0475 µM (active) | 0.598 µM (active) | 4.02 µM (inactive)
[N-]=[N+]=Nc1cccc(-c2nnc(Cl)cc2O)c1 | > 100 µM (inactive) | – | > 100 µM (inactive) | > 100 µM (inactive) | > 100 µM (inactive) | > 100 µM (inactive) | 89.7 µM (inactive) | > 100 µM (inactive) | > 100 µM (inactive) | > 100 µM (inactive) | > 100 µM (inactive) | > 100 µM (inactive) | > 100 µM (inactive) | > 100 µM (inactive) | > 100 µM (inactive) | > 100 µM (inactive) | – | > 100 µM (inactive) | > 10 µM (inactive)
CCOC(=O)c1nc2ccc(C(F)(F)F)cc2nc1NCc1ccc(F)cc1 | 28.8 µM (inactive) | 32.6 µM (inactive) | 26.1 µM (inactive) | 37.2 µM (inactive) | 29.4 µM (inactive) | 75.5 µM (inactive) | 91.4 µM (inactive) | 29.6 µM (inactive) | 27 µM (inactive) | 24.5 µM (inactive) | 50.2 µM (inactive) | 37.8 µM (inactive) | 27.5 µM (inactive) | 47.3 µM (inactive) | 46.5 µM (inactive) | 30.1 µM (inactive) | – | 58.7 µM (inactive) | 29 µM (inactive)
COc1ccc(/C=C2\CCC(C)C3=C(c4ccc(OC)c(OC)c4)C(C#N)=C(N)OC32)cc1OC (centres undefined) | 3.45 µM (inactive) | 7.94 µM (inactive) | 3.16 µM (inactive) | 1.65 µM (inactive) | 3.13 µM (inactive) | 3.43 µM (inactive) | 2.33 µM (inactive) | 2.63 µM (inactive) | 2.76 µM (inactive) | 3.78 µM (inactive) | 3.58 µM (inactive) | 1.86 µM (inactive) | 2.7 µM (inactive) | – | 5.5 µM (inactive) | 3.35 µM (inactive) | 2.01 µM (inactive) | 3.3 µM (inactive) | 2.4 µM (inactive)
CC1(C)C2C=CC1(C)C1(CC2)OCCO1 (centres undefined) | > 100 µM (inactive) | > 100 µM (inactive) | > 100 µM (inactive) | > 100 µM (inactive) | > 100 µM (inactive) | > 100 µM (inactive) | 66.1 µM (inactive) | > 100 µM (inactive) | > 100 µM (inactive) | > 100 µM (inactive) | > 100 µM (inactive) | – | > 100 µM (inactive) | > 100 µM (inactive) | > 100 µM (inactive) | > 100 µM (inactive) | – | > 100 µM (inactive) | > 100 µM (inactive)
CC(C)CC(N)C(=O)O (centres undefined) | > 100 µM (inactive) | > 100 µM (inactive) | > 100 µM (inactive) | > 100 µM (inactive) | > 100 µM (inactive) | > 100 µM (inactive) | > 100 µM (inactive) | > 100 µM (inactive) | > 100 µM (inactive) | > 100 µM (inactive) | > 100 µM (inactive) | – | > 100 µM (inactive) | > 100 µM (inactive) | > 100 µM (inactive) | > 100 µM (inactive) | > 100 µM (inactive) | > 100 µM (inactive) | > 100 µM (inactive)
COc1ccc2c3c([nH]c2c1)[C@H](C=C(C)C)N1C(=O)[C@@H]2CCCN2C(=O)[C@@H]1C3 [FUMITREMORGIN] | > 100 µM (inactive) | > 100 µM (inactive) | > 100 µM (inactive) | 38.1 µM (inactive) | > 100 µM (inactive) | 51.3 µM (inactive) | 21.7 µM (inactive) | > 100 µM (inactive) | > 100 µM (inactive) | > 100 µM (inactive) | > 100 µM (inactive) | > 100 µM (inactive) | > 100 µM (inactive) | 47 µM (inactive) | > 100 µM (inactive) | 48 µM (inactive) | – | > 100 µM (inactive) | > 100 µM (inactive)
O=Cc1ccc(OCc2cccc(COc3ccc(/C=N\Nc4ccc([N+](=O)[O-])cc4[N+](=O)[O-])cc3)n2)cc1 | > 100 µM (inactive) | > 100 µM (inactive) | > 100 µM (inactive) | 43.2 µM (inactive) | > 100 µM (inactive) | > 100 µM (inactive) | – | > 100 µM (inactive) | > 100 µM (inactive) | > 100 µM (inactive) | > 100 µM (inactive) | > 100 µM (inactive) | > 100 µM (inactive) | 19.6 µM (inactive) | > 100 µM (inactive) | > 100 µM (inactive) | > 100 µM (inactive) | > 100 µM (inactive) | > 100 µM (inactive)
CCOC(=O)Nn1c(C)nnc1CC#N | > 100 µM (inactive) | > 100 µM (inactive) | > 100 µM (inactive) | > 100 µM (inactive) | > 100 µM (inactive) | > 100 µM (inactive) | > 100 µM (inactive) | > 100 µM (inactive) | – | > 100 µM (inactive) | > 100 µM (inactive) | – | > 100 µM (inactive) | > 100 µM (inactive) | > 100 µM (inactive) | > 100 µM (inactive) | > 100 µM (inactive) | > 100 µM (inactive) | > 100 µM (inactive)
C/C(=C(/C)c1ccc(O)cc1)c1ccc(O)cc1 [DIMETHYLSTILBESTROL] | 58.6 µM (inactive) | > 100 µM (inactive) | – | 56.8 µM (inactive) | 41.3 µM (inactive) | – | 39.2 µM (inactive) | 41.4 µM (inactive) | > 100 µM (inactive) | 46 µM (inactive) | 46.6 µM (inactive) | 8.95 µM (inactive) | 43.6 µM (inactive) | 94 µM (inactive) | 87.3 µM (inactive) | 61.9 µM (inactive) | 19.5 µM (inactive) | 62.7 µM (inactive) | 70.8 µM (inactive)
CNC(=O)CCC(NC(C)=O)C(=O)NC(Cc1ccc(NC(=O)CCCCC(C)=O)cc1)C(=O)NC(CCC(=O)NC)C(=O)NC (centres undefined) | > 100 µM (inactive) | > 100 µM (inactive) | > 100 µM (inactive) | > 100 µM (inactive) | > 100 µM (inactive) | > 100 µM (inactive) | – | > 100 µM (inactive) | > 100 µM (inactive) | > 100 µM (inactive) | > 100 µM (inactive) | > 100 µM (inactive) | > 100 µM (inactive) | > 100 µM (inactive) | > 100 µM (inactive) | > 100 µM (inactive) | > 100 µM (inactive) | > 100 µM (inactive) | > 100 µM (inactive)
CC[C@]12C=CCN3CC[C@@]4(c5cc(Br)c(OC)cc5N(C)[C@H]4[C@@](O)(C(=O)N[C@@H](Cc4ccc(O)cc4)C(=O)OC)[C@@H]1O)[C@@H]32 | 16.5 µM (inactive) | > 100 µM (inactive) | 14.8 µM (inactive) | 17.6 µM (inactive) | 39 µM (inactive) | 19.3 µM (inactive) | – | 26.7 µM (inactive) | 18.6 µM (inactive) | 43 µM (inactive) | 25.6 µM (inactive) | 29.2 µM (inactive) | 52.4 µM (inactive) | 46.5 µM (inactive) | 55.1 µM (inactive) | 49.9 µM (inactive) | 17.6 µM (inactive) | 11.3 µM (inactive) | 27.2 µM (inactive)
Fc1ccc(C2NC(=S)NC3=C2CCOc2c3ccc3ccccc23)cc1 (centres undefined) | 94.8 µM (inactive) | 55.1 µM (inactive) | – | 14.8 µM (inactive) | 50.8 µM (inactive) | 34.4 µM (inactive) | 13.6 µM (inactive) | 19 µM (inactive) | 6.67 µM (inactive) | 3.39 µM (inactive) | 44.1 µM (inactive) | 51.9 µM (inactive) | 24.4 µM (inactive) | 64.9 µM (inactive) | > 100 µM (inactive) | 33 µM (inactive) | 11.3 µM (inactive) | 21.8 µM (inactive) | 26.7 µM (inactive)
